What was measured:
Format in all cases: cell-based
RIPK1 = molecular target: T1, RIPK1 (Mus musculus, UniProt Q60855); experiment: streptavidin pull down from cell lysate, immunoblot
T1 construct: endogenous, L929sAhFas and MEF cell lysates
T1 sequence (Q60855 1-656): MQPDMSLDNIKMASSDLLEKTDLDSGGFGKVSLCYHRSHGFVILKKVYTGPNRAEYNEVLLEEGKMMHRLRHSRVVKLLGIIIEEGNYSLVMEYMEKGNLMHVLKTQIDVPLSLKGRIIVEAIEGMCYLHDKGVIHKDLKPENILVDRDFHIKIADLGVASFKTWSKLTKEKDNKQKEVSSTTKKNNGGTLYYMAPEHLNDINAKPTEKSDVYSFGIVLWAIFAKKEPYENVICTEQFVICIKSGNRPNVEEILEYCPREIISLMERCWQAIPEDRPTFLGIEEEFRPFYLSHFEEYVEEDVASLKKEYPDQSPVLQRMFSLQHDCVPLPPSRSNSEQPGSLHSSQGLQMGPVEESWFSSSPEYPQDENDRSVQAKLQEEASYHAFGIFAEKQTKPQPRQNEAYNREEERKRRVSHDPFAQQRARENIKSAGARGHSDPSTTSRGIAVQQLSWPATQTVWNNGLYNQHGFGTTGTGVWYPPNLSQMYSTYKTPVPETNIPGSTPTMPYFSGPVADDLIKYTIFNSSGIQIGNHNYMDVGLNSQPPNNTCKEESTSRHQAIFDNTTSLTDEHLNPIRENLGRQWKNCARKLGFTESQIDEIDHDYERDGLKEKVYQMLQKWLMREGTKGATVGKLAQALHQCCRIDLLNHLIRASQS

RIPK3 = molecular target: T2, RIPK3 (Mus musculus, UniProt Q9QZL0); experiment: as above
T2 construct: endogenous, L929sAhFas and MEF cell lysates
T2 sequence (Q9QZL0 whole entry): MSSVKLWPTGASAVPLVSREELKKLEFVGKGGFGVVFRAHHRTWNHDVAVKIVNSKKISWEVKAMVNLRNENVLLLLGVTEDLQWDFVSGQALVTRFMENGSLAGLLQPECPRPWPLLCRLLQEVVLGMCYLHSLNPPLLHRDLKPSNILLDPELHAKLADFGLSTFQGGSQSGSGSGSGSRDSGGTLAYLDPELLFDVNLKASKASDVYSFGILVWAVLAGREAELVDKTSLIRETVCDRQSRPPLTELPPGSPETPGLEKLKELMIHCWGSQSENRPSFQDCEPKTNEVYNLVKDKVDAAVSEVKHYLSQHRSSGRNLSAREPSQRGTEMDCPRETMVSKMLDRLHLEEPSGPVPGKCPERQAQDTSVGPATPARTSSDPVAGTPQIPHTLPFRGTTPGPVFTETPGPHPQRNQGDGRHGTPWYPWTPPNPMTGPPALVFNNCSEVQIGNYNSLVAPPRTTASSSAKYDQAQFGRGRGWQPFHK

MLKL = molecular target: T3, MLKL (Mus musculus, UniProt Q9D2Y4); experiment: streptavidin pull down from lysates, including RIPK1-/- and RIPK3-/- MEF
T3 construct: endogenous, L929sAhFas and MEF cell lysates
T3 sequence (Q9D2Y4 1-472): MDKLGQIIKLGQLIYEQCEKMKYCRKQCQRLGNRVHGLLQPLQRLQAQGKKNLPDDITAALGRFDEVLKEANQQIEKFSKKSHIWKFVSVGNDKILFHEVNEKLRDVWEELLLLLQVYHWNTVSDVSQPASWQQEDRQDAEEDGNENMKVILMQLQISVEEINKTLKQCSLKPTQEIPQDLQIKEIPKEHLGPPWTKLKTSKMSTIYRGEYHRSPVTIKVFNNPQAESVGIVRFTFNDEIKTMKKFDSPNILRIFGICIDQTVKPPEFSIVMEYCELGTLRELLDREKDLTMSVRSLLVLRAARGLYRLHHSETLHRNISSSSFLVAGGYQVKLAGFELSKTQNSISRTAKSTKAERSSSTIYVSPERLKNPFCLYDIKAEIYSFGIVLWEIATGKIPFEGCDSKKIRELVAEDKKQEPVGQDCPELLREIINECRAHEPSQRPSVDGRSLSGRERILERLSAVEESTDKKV

B-Raf = molecular target: T4, B-Raf (Mus musculus, UniProt P28028); experiment: streptavidin pull down from cell lysate, immunoblot
T4 construct: gene Braf; endogenous, L929sAhFas cell lysate
T4 sequence (P28028 2-751): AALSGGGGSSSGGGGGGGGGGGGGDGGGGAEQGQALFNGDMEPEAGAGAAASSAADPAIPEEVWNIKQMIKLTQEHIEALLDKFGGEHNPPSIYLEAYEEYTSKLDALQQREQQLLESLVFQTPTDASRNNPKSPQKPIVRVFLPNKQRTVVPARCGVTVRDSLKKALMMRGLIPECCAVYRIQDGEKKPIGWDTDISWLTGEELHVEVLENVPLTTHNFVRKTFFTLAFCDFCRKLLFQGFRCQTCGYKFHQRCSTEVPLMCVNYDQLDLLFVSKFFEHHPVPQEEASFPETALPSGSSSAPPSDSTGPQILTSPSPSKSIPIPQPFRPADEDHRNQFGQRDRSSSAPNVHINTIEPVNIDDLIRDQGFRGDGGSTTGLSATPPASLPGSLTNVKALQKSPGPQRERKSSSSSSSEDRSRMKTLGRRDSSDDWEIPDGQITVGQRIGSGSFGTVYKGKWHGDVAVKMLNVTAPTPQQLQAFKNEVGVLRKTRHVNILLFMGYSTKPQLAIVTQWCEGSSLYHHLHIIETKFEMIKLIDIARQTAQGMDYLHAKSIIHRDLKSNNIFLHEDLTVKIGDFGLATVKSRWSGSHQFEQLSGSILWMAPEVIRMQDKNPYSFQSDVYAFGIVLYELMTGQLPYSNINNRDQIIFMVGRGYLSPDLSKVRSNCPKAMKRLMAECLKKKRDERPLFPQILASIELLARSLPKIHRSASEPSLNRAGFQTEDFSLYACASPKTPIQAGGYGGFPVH

**Q.** Which results are given for `O=C(CCCC[C@@H]1SC[C@@H]2NC(=O)N[C@@H]21)NCCOCCOCCNC(=O)c1cc(Oc2ccc(NC(=O)Nc3ccc(Cl)c(C(F)(F)F)c3)cc2)ccn1` [compound 10, biotinylated Sorafenib]?
**A.** streptavidin pull down from cell lysate, immunoblot (RIPK1): We show a dose-dependent pull down of RIPK1, RIPK3, MLKL and B-Raf; streptavidin pull down from cell lysate, immunoblot (RIPK3): We show a dose-dependent pull down of RIPK1, RIPK3, MLKL and B-Raf; streptavidin pull down from lysates, including RIPK1-/- and RIPK3-/- MEF (MLKL): Sorafenib is likely to bind independently to RIPK1, RIPK3 or MLKL (Figure 4c), even in the absence of a necroptotic stimulus; streptavidin pull down from cell lysate, immunoblot (B-Raf): We show a dose-dependent pull down of RIPK1, RIPK3, MLKL and B-Raf
